In PubChem BioAssay (NCI):
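Abbreviation: GI50, concentration required for 50% inhibition of growth. TGI marks complete inhibition of growth.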

Columns and labels:
Experiment in all cases: DTP human tumour cell line panel, 384-well format
SK-MEL-5 melanoma = system: SK-MEL-5 melanoma
HOP-92 NSCLC = system: HOP-92 NSCLC
CCRF-CEM leukemia = system: CCRF-CEM leukemia
SW-620 colon = system: SW-620 colon
SF-539 CNS = system: SF-539 CNS
U251 glioblastoma = system: U251 glioblastoma
SNB-75 CNS = system: SNB-75 CNS
CAKI-1 renal = system: CAKI-1 renal
OVCAR-3 ovarian = system: OVCAR-3 ovarian
OVCAR-5 ovarian = system: OVCAR-5 ovarian
HT29 colon = system: HT29 colon
RPMI-8226 leukemia = system: RPMI-8226 leukemia
BT-549 breast = system: BT-549 breast
HL-60(TB) leukemia = system: HL-60(TB) leukemia
HOP-62 NSCLC = system: HOP-62 NSCLC
KM12 colon = system: KM12 colon
A498 renal = system: A498 renal
NCI/ADR-RES ovarian = system: NCI/ADR-RES ovarian
NCI-H226 lung = system: NCI-H226 lung
OVCAR-4 ovarian = system: OVCAR-4 ovarian
MDA-MB-231 breast = system: MDA-MB-231 breast
NCI-H23 lung = system: NCI-H23 lung
PC-3 prostate = system: PC-3 prostate
UO-31 renal = system: UO-31 renal
SF-268 CNS = system: SF-268 CNS
OVCAR-8 ovarian = system: OVCAR-8 ovarian
RXF 393 renal = system: RXF 393 renal
A549 NSCLC = system: A549 NSCLC
EKVX NSCLC = system: EKVX NSCLC
SK-OV-3 ovarian = system: SK-OV-3 ovarian
786-0 renal = system: 786-0 renal
SNB-19 CNS = system: SNB-19 CNS
MDA-MB-435 melanoma = system: MDA-MB-435 melanoma
DU-145 prostate = system: DU-145 prostate
UACC-257 melanoma = system: UACC-257 melanoma
SR leukemia = system: SR leukemia
LOX IMVI melanoma = system: LOX IMVI melanoma
K-562 leukemia = system: K-562 leukemia
UACC-62 melanoma = system: UACC-62 melanoma
SN12C renal = system: SN12C renal
IGROV1 ovarian = system: IGROV1 ovarian
HCC-2998 colon = system: HCC-2998 colon
HCT-116 colon = system: HCT-116 colon
NCI-H322M lung = system: NCI-H322M lung
NCI-H460 NSCLC = system: NCI-H460 NSCLC
SF-295 CNS = system: SF-295 CNS
MDA-MB-468 breast = system: MDA-MB-468 breast
NCI-H522 lung = system: NCI-H522 lung
MOLT-4 leukemia = system: MOLT-4 leukemia
COLO 205 colon = system: COLO 205 colon
MCF7 breast = system: MCF7 breast
HCT-15 colon = system: HCT-15 colon
ACHN renal = system: ACHN renal
SK-MEL-2 melanoma = system: SK-MEL-2 melanoma
MALME-3M melanoma = system: MALME-3M melanoma
T-47D breast = system: T-47D breast
M14 melanoma = system: M14 melanoma
TK-10 renal = system: TK-10 renal
SK-MEL-28 melanoma = system: SK-MEL-28 melanoma

## CC#C/C(=N\OC[C@H]1COCCN1)c1ccc2ncnc(Nc3ccc(OCc4cccc(F)c4)c(Cl)c3)c2c1
SK-MEL-5 melanoma
  GI50: 1510 nM
  TGI: 2850 nM
HOP-92 NSCLC
  GI50: 981 nM
  TGI: 2180 nM
CCRF-CEM leukemia
  GI50: 1500 nM
  TGI: 2840 nM
SW-620 colon
  GI50: 1880 nM
  TGI: 3300 nM
SF-539 CNS
  GI50: 1590 nM
  TGI: 2950 nM
U251 glioblastoma
  GI50: 1880 nM
  TGI: 3310 nM
SNB-75 CNS
  GI50: 1870 nM
  TGI: 3270 nM
CAKI-1 renal
  GI50: 1120 nM
  TGI: 2340 nM
OVCAR-3 ovarian
  GI50: 1190 nM
  TGI: 2440 nM
OVCAR-5 ovarian
  GI50: 1800 nM
  TGI: 3590 nM
HT29 colon
  GI50: 1650 nM
  TGI: 3040 nM
RPMI-8226 leukemia
  GI50: 959 nM
  TGI: 2420 nM
BT-549 breast
  GI50: 1510 nM
  TGI: 2850 nM
HL-60(TB) leukemia
  GI50: 2230 nM
  TGI: 3690 nM
HOP-62 NSCLC
  GI50: 1620 nM
  TGI: 2980 nM
KM12 colon
  GI50: 1760 nM
  TGI: 3160 nM
A498 renal
  GI50: 1130 nM
  TGI: 2340 nM
NCI/ADR-RES ovarian
  GI50: 1490 nM
  TGI: 4020 nM
NCI-H226 lung
  GI50: 1800 nM
  TGI: 3380 nM
OVCAR-4 ovarian
  GI50: 1280 nM
  TGI: 2550 nM
MDA-MB-231 breast
  GI50: 1730 nM
  TGI: 3110 nM
NCI-H23 lung
  GI50: 2020 nM
  TGI: 3980 nM
PC-3 prostate
  GI50: 1780 nM
  TGI: 3200 nM
UO-31 renal
  GI50: 1520 nM
  TGI: 2860 nM
SF-268 CNS
  GI50: 1620 nM
  TGI: 3000 nM
OVCAR-8 ovarian
  GI50: 1370 nM
  TGI: 2670 nM
RXF 393 renal
  GI50: 864 nM
  TGI: 2260 nM
A549 NSCLC
  GI50: 1170 nM
  TGI: 2420 nM
EKVX NSCLC
  GI50: 1270 nM
  TGI: 2540 nM
SK-OV-3 ovarian
  GI50: 246 nM
  TGI: 3420 nM
786-0 renal
  GI50: 1310 nM
  TGI: 2600 nM
SNB-19 CNS
  GI50: 1670 nM
  TGI: 3040 nM
MDA-MB-435 melanoma
  GI50: 1890 nM
  TGI: 3310 nM
DU-145 prostate
  GI50: 1160 nM
  TGI: 2420 nM
UACC-257 melanoma
  GI50: 1520 nM
  TGI: 2850 nM
SR leukemia
  GI50: 393 nM
  TGI: 1230 nM
LOX IMVI melanoma
  GI50: 1910 nM
  TGI: 3330 nM
K-562 leukemia
  GI50: 1700 nM
  TGI: 3090 nM
UACC-62 melanoma
  GI50: 1650 nM
  TGI: 3020 nM
SN12C renal
  GI50: 1280 nM
  TGI: 2550 nM
IGROV1 ovarian
  GI50: 261 nM
  TGI: 1870 nM
HCC-2998 colon
  GI50: 1540 nM
  TGI: 2890 nM
HCT-116 colon
  GI50: 1660 nM
  TGI: 3050 nM
NCI-H322M lung
  GI50: 102 nM
  TGI: 1230 nM
NCI-H460 NSCLC
  GI50: 1750 nM
  TGI: 3180 nM
SF-295 CNS
  GI50: 1820 nM
  TGI: 3220 nM
MDA-MB-468 breast
  GI50: 55.7 nM
  TGI: 368 nM
NCI-H522 lung
  GI50: 48.2 nM
  TGI: 1290 nM
MOLT-4 leukemia
  GI50: 1440 nM
  TGI: 2760 nM
COLO 205 colon
  GI50: 1960 nM
  TGI: 3380 nM
MCF7 breast
  GI50: 1500 nM
  TGI: 2850 nM
HCT-15 colon
  GI50: 1670 nM
  TGI: 3050 nM
ACHN renal
  GI50: 523 nM
  TGI: 1990 nM
SK-MEL-2 melanoma
  GI50: 1310 nM
  TGI: 2580 nM
MALME-3M melanoma
  GI50: 1760 nM
  TGI: 3150 nM
T-47D breast
  GI50: 1020 nM
  TGI: 2410 nM
M14 melanoma
  GI50: 1950 nM
  TGI: 3370 nM
TK-10 renal
  GI50: 404 nM
  TGI: 1880 nM
SK-MEL-28 melanoma
  GI50: 1770 nM
  TGI: 3160 nM
